Reference: patent US8415469B2, “Compounds and methods for kinase modulation, and indications therefor” (Plexxikon Inc., priority 2005, dated 2013)

Tests used:
Assay type in all cases: biochemical
B-Raf = molecular target: T1, B-Raf (Homo sapiens, UniProt P15056); assay: AlphaScreen kinase assay, B-Raf; conditions: read-out: IC50, activity toward kinase B-Raf
T1 construct: purchased Upstate Biotechnology

B-Raf V600E = molecular target: T2, B-Raf V600E (Homo sapiens, UniProt P15056, V600E); assay: AlphaScreen kinase assay, B-Raf V600E; conditions: read-out: IC50, activity toward kinase B-Raf V600E
T2 construct: P4254. pFastBacBD-CDC37 BRAF D437-K722-X, V600E; His6 with pFastBac HT leader (TEV site) (N); made in house; host or cells: Sf9 (baculovirus; chaperone CDC37 co-expressed)
T2 sequence (P15056 with tags, fused parts or gaps V600E): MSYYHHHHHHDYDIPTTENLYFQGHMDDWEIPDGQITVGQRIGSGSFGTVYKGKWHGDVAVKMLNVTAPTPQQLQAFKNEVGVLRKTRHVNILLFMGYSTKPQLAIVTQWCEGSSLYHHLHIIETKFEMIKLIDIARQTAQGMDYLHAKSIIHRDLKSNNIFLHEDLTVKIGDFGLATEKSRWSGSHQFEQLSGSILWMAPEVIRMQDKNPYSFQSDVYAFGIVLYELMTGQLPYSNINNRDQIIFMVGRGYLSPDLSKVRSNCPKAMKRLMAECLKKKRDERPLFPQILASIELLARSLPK

Btk = molecular target: T3, Btk (Homo sapiens, UniProt Q06187); assay: Z'-Lyte FRET kinase assay (Invitrogen), Btk; conditions: read-out: IC50, activity toward kinase Btk
T3 construct: purchased Invitrogen (assay run by Invitrogen)
T3 sequence (Q06187 whole entry): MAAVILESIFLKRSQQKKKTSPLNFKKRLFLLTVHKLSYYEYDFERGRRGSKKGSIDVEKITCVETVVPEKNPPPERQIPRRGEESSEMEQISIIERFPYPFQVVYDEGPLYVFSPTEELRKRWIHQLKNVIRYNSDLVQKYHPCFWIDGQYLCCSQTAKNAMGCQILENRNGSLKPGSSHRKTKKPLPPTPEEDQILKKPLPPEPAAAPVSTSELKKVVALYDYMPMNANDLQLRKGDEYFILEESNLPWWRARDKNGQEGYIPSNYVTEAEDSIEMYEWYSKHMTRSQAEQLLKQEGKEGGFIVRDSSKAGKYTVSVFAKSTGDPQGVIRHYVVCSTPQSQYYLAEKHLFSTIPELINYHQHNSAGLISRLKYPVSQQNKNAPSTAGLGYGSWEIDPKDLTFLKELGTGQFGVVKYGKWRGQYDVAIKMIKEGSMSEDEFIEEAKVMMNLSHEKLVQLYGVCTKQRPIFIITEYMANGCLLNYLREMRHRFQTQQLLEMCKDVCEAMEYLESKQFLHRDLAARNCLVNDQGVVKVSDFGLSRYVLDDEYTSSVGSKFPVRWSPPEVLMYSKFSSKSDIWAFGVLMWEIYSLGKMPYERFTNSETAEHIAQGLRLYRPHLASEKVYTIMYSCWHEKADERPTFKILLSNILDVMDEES

FGFR1 = molecular target: T4, FGFR1 (Homo sapiens, UniProt P11362, C488A/C584S); assay: AlphaScreen kinase assay, FGFR1; conditions: read-out: IC50, activity toward kinase FGFR
T4 construct: P1351.pET N6 BI-PTP FGFR A458-E765-X C488A, C584S; made in house; host or cells: E. coli (PTP1B co-expressed)
T4 sequence (P11362 458-765 C488A/C584S): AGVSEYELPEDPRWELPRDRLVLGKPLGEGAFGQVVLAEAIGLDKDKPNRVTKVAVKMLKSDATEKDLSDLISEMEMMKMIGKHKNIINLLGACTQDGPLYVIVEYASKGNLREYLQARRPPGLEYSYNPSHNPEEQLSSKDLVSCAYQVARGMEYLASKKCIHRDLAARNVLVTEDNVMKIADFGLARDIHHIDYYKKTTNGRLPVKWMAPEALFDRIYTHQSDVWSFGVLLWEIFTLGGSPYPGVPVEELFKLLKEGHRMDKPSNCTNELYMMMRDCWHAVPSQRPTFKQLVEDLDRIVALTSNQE

Fms = molecular target: T5, Fms (Homo sapiens, UniProt P07333); assay: AlphaScreen kinase assay, Fms; conditions: read-out: IC50, activity toward kinase Fms
T5 construct: purchased Upstate Biotechnology
T5 sequence (P07333 20-972): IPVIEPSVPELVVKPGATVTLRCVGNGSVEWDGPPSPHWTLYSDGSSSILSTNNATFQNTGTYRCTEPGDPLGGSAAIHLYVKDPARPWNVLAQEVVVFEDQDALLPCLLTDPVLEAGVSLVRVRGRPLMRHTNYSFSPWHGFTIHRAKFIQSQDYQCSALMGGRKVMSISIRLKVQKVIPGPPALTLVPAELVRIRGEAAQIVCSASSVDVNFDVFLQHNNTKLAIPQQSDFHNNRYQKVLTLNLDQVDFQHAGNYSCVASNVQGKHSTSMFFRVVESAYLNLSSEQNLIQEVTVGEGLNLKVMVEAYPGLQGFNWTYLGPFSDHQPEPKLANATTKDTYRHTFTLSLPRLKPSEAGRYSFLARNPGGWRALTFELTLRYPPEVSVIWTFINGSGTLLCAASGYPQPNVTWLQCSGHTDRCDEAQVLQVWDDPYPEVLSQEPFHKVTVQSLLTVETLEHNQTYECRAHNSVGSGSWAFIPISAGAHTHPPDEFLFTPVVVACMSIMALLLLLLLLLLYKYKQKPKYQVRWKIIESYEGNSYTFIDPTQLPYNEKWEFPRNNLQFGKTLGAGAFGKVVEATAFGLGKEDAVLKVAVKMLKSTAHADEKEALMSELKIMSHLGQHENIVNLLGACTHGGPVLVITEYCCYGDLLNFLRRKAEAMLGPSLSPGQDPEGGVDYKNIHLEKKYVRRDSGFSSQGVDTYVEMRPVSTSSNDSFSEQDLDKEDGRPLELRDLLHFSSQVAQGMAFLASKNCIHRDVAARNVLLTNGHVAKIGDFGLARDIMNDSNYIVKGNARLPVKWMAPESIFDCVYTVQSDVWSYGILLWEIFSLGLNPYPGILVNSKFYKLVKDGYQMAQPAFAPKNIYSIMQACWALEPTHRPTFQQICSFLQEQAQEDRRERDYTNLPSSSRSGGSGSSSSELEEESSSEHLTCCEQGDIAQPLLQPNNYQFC

Jnk1 = molecular target: T6, Jnk1 (Homo sapiens, UniProt P45983); assay: AlphaScreen kinase assay, Jnk1; conditions: read-out: IC50, activity toward kinase Jnk1
T6 construct: purchased Upstate Biotechnology

Kit = molecular target: T7, Kit (Homo sapiens, UniProt P10721); assay: AlphaScreen kinase assay, Kit; conditions: read-out: IC50, activity toward kinase Kit
T7 construct: P1332.N6 BI PTP KIT M552-K948-X COD; His6 (N); made in house; host or cells: E. coli (PTP1B co-expressed)
T7 sequence (P10721 with tags, fused parts or gaps): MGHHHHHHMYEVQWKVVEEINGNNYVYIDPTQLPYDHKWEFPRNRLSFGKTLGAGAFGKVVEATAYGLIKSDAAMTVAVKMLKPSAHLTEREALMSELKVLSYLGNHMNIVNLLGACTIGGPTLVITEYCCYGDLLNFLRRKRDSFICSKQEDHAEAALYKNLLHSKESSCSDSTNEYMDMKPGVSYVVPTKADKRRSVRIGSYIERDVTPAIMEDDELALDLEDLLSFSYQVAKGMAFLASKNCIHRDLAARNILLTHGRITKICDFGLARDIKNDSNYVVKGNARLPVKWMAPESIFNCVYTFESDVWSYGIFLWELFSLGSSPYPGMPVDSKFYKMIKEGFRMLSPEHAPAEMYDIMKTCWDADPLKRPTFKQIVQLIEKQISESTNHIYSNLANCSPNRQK

Src = molecular target: T8, Src (Homo sapiens, UniProt P12931); assay: AlphaScreen kinase assay, Src; conditions: read-out: IC50, activity toward kinase Src
T8 construct: P1144. pET-N6 BI-PTP SRC V86-L536-X; made in house
T8 sequence (P12931 with tags, fused parts or gaps): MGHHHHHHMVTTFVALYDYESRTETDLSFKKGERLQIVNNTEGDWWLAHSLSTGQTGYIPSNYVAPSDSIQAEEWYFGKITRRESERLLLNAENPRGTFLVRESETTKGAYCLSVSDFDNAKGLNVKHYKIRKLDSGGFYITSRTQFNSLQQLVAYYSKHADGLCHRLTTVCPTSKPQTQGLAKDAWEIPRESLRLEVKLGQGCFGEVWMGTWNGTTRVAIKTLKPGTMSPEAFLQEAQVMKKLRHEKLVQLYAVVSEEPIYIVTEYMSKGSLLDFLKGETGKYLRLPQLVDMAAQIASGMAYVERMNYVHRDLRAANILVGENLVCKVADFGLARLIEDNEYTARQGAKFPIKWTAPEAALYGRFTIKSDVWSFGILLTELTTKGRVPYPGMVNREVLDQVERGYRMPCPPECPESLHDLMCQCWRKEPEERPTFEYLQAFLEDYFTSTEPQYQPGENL

Ret = molecular target: T9, Ret (Homo sapiens, UniProt P07949); assay: AlphaScreen kinase assay, Ret; conditions: read-out: IC50, activity toward kinase Ret
T9 construct: P1378.pET-SF BI-PTP RET H661-R1012 HIS; made in house
T9 sequence (P07949 with tags, fused parts or gaps): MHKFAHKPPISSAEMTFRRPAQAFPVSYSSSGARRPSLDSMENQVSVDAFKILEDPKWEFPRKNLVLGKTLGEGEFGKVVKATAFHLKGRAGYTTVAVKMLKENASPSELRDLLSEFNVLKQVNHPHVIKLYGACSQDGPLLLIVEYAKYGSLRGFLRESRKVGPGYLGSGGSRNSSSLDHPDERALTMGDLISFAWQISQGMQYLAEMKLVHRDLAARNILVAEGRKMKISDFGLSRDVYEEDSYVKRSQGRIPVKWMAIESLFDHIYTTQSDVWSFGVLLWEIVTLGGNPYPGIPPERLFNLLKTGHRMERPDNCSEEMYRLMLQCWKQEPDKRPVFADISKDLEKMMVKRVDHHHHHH

c-Raf-1 = molecular target: T10, c-Raf-1 (Homo sapiens, UniProt P04049); assay: AlphaScreen kinase assay, c-Raf-1; conditions: read-out: IC50, activity toward kinase c-Raf-1
T10 construct: purchased Upstate Biotechnology
T10 sequence (P04049 whole entry): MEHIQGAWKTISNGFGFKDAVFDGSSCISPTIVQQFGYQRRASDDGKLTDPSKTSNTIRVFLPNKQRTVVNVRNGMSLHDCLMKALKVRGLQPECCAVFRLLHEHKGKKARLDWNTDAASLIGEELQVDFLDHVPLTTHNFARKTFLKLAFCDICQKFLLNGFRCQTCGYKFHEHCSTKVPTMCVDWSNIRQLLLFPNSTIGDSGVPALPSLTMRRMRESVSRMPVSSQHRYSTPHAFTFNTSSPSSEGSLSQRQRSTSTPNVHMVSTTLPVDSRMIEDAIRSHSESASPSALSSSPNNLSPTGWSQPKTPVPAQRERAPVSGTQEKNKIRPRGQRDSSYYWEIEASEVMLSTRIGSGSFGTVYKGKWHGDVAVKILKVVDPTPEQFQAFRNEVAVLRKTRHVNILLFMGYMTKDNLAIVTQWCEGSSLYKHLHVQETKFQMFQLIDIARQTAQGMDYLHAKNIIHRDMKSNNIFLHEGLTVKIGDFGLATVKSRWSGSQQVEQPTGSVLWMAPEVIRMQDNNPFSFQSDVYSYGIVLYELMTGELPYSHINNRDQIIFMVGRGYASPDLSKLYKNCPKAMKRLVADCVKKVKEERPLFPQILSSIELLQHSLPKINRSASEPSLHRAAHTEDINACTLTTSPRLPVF

Jnk3 = molecular target: T11, Jnk3 (Homo sapiens, UniProt P53779); assay: AlphaScreen kinase assay, Jnk3; conditions: read-out: IC50, activity toward kinase Jnk3
T11 construct: purchased Upstate Biotechnology

Fak = molecular target: T12, Fak (Homo sapiens, UniProt Q05397); assay: AlphaScreen kinase assay, Fak; conditions: read-out: IC50, activity toward kinase Fak
T12 construct: P1358.pFastBacHtb FAK S411-Q686-X; His6 with pFastBacHTb leader (TEV site) (N); made in house; host or cells: Sf9 (baculovirus)
T12 sequence (Q05397 411-686): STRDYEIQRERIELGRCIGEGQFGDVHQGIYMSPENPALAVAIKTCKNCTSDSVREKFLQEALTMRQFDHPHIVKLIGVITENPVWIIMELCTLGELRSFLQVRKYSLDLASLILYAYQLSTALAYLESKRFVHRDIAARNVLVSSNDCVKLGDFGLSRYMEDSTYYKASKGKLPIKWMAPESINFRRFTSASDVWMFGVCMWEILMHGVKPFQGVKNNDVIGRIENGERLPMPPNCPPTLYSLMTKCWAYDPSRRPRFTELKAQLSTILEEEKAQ

Kdr = molecular target: T13, Kdr (Homo sapiens, UniProt P35968); assay: Z'-Lyte FRET kinase assay (Invitrogen), Kdr; conditions: read-out: IC50, activity toward kinase Kdr
T13 construct: purchased Invitrogen (assay run by Invitrogen)

Flt1 = molecular target: T14, Flt1 (Homo sapiens, UniProt P17948); assay: AlphaScreen kinase assay, Flt1; conditions: read-out: IC50, activity toward kinase Flt1
T14 construct: P1826.pETN6 BI-PTP FLT1 M799-D1165-X WT; His6 (N); made in house; host or cells: E. coli (PTP1B co-expressed)
T14 sequence (P17948 with tags, fused parts or gaps): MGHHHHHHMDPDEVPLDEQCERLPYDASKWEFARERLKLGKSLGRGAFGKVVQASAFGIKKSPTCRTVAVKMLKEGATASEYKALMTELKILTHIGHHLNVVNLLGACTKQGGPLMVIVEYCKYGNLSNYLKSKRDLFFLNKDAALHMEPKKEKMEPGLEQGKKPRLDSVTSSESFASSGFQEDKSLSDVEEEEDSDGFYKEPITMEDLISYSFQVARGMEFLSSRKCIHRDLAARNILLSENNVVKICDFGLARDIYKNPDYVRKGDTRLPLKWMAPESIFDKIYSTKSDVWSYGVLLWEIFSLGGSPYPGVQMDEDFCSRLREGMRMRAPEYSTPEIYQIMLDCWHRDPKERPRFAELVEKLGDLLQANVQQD
Source text: AlphaScreen assay was used to screen additional kinases. The assay is similarly dependent on the phosphorylation of a peptide substrate. In this assay, an antibody that recognizes phosphorylated substrate is bound to an acceptor bead. The peptide substrate is attached to biotin, which binds to a donor head that contains streptavidin. Thus phosphorylated substrate is bound by antibody and streptavidin, bringing the donor and acceptor heads into close proximity when kinase is not inhibited. The donor produces singlet oxygen which results in emission from the acceptor when they are in close proximity. Conversely, when kinase is inhibited, the donor and acceptor beads are not associated and the emission from the acceptor is reduced.
AlphaScreen assays were done using compounds dissolved in DMSO to a concentration of 20 mM. The compounds were diluted accordingly to the desired final concentrations in each sample well, using 1:3 serial dilution for a total of 8 concentration points. Plates were prepared such that each kinase reaction is 20 μl in 1× kinase buffer, 5% DMSO and 10 μM ATP. After incubation of the kinase reaction for 1 hour at room temperature, 5 μl of donor beads in stop buffer (50 mM EDTA in 1× kinase buffer) was added, the sample was mixed and incubated for 20 minutes at room temperature before adding 5 μl of acceptor beads in stop buffer. The samples were incubated for 60 minutes at room temperature and the signal per well was read on AlphaQuest reader.

Stk6 = molecular target: T15, Stk6 (Homo sapiens, UniProt O14965); assay: Z'-Lyte FRET kinase assay (Invitrogen), Stk6; conditions: read-out: IC50, activity toward kinase Stk6
T15 construct: purchased Invitrogen (Carlsbad, Calif.), screening service
T15 sequence (O14965 1-403): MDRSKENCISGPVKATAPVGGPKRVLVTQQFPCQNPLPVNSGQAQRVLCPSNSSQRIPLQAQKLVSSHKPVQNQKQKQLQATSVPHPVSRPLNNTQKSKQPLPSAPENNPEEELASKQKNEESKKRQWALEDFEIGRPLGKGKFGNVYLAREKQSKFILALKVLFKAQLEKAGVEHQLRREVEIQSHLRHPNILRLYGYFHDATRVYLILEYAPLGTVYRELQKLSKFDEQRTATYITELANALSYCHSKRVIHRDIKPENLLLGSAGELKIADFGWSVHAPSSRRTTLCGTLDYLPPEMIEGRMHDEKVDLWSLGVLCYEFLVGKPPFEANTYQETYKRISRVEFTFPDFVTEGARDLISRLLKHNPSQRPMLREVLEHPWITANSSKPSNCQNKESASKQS

Measured: IC50

T1 sequence (P15056 whole entry): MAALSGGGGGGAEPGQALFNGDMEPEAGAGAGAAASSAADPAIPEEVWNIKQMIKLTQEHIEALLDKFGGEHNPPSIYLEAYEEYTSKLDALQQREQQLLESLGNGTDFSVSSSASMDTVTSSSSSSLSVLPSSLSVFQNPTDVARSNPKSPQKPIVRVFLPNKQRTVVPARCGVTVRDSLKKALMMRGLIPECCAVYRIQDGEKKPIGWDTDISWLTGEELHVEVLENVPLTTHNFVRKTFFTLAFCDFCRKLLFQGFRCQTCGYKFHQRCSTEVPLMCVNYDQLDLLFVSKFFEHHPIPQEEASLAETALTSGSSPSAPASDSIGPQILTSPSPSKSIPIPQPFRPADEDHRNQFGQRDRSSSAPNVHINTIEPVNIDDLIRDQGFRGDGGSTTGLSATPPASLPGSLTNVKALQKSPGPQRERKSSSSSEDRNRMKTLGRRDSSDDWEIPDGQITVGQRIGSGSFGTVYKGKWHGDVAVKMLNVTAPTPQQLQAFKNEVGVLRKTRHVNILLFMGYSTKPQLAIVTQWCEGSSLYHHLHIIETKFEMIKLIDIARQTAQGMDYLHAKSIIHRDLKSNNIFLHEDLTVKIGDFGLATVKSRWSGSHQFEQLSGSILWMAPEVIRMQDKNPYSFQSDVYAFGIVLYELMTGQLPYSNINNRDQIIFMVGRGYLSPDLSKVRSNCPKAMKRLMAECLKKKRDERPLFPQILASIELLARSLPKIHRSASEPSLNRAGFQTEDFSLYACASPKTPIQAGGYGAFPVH

COc1cccc(C(=O)c2c[nH]c3ncc(-c4cccnc4)cc23)c1F [Compound P-1343, (2-Fluoro-3-methoxy-phenyl)-(5-pyridin-3-yl-1H-pyrrolo[2,3-b]pyridin-3-yl)-methanone]
≤ 10 µM: B-Raf | B-Raf V600E | Btk | FGFR1 | Fms | Jnk1 | Kit | Src

CC(=O)Nc1cccc(-c2ccnc3[nH]cc(C(=O)c4ccccc4C)c23)c1 [Compound P-0314]
≤ 10 µM: Btk | Ret

O=C(c1c(F)ccc(NCc2ccccc2)c1F)c1c[nH]c2ncc(-c3cccnc3)cc12 [Compound P-0807, (3-Benzylamino-2,6-difluoro-phenyl)-(5-pyridin-3-yl-1H-pyrrolo[2,3-b]pyridin-3-yl)-methanone]
not listed: Kit | Fak | Kdr | Flt1 | Stk6
≤ 10 µM: all other assays above

Cc1cccc(C)c1C(=O)c1c[nH]c2ncc(-c3cccnc3)cc12 [Compound P-1480]
≤ 10 µM: B-Raf | B-Raf V600E | Btk | Fak | FGFR1 | Fms | Kit | Src

O=C(c1ccc(Cl)cc1)c1c[nH]c2ncc(-c3ccsc3)cc12 [Compound P-0321]
≤ 10 µM: Btk | FGFR1 | Kdr | Kit | Ret

O=C(c1c(Cl)cccc1Cl)c1c[nH]c2ncc(-c3cccnc3)cc12 [Compound P-1479]
≤ 10 µM: B-Raf | B-Raf V600E | Btk | Fak | FGFR1 | Fms | Kit | Src

Cc1ccccc1C(=O)c1c[nH]c2ncc(Br)cc12 [Compound P-0217]
≤ 10 µM: Btk | FGFR1 | Kit

CC(=O)Nc1cccc(-c2ccnc3[nH]cc(C(=O)c4cc(F)ccc4F)c23)c1 [Compound P-0280]
≤ 10 µM: Btk | Ret

O=C(c1c(F)ccc(NS(=O)(=O)c2cccs2)c1F)c1c[nH]c2ncc(Cl)cc12 [Compound P-1267, Thiophene-2-sulfonic acid [3-(5-chloro-1H-pyrrolo[2,3-b]pyridine-3-carbonyl)-2,4-difluoro-phenyl]-amide]
≤ 10 µM: B-Raf | B-Raf V600E | Btk | Fak | FGFR1 | Fms | Kit | Src

COc1cc(OC)cc(C(=O)c2c[nH]c3ncc(-c4cccc(NC(C)=O)c4)cc23)c1 [Compound P-1420, N-{3-[3-(3,5-Dimethoxy-benzoyl)-1H-pyrrolo[2,3-b]pyridin-5-yl]-phenyl}-acetamide]
≤ 10 µM: B-Raf | B-Raf V600E | Btk | FGFR1 | Flt1 | Fms | Kit

O=Cc1ccsc1-c1ccnc2[nH]ccc12 [Compound P-0276]
≤ 10 µM: Fak | Stk6

Cc1ccc(F)cc1C(=O)c1c[nH]c2ncc(-c3ccc(Cl)cc3)cc12 [Compound P-0304]
≤ 10 µM: Btk | FGFR1 | Kit | Ret

O=C(c1c(F)cccc1F)c1c[nH]c2ncc(-c3cccnc3)cc12 [Compound P-1485]
≤ 10 µM: B-Raf | B-Raf V600E | Btk | Fak | FGFR1 | Fms | Jnk3 | Src

COc1ccc(F)c(C(=O)c2c[nH]c3ncc(-c4ccccc4)cc23)c1 [Compound P-0351]
≤ 10 µM: B-Raf | B-Raf V600E | Btk | FGFR1 | Fms | Ret

COc1ccc(F)c(C(=O)c2c[nH]c3ncc(-c4ccncc4)cc23)c1F [Compound P-1389, (2,6-Difluoro-3-methoxy-phenyl)-(5-pyridin-4-yl-1H-pyrrolo[2,3-b]pyridin-3-yl)-methanone]
≤ 10 µM: B-Raf | B-Raf V600E | Btk | c-Raf-1 | Fak | FGFR1 | Fms | Kit

CCCS(=O)(=O)Nc1ccc(F)c(C(=O)c2c[nH]c3ncc(/C=C/C(=O)O)cc23)c1F [Compound P-1269, 3-3-[2,6-difluoro-3-(propane-1-sulfonylamino)-benzoyl]-1H-pyrrolo[2,3-b]pyridin-5-yl-acrylic acid]
not listed: Jnk1 | Ret | c-Raf-1 | Jnk3 | Kdr | Stk6
≤ 10 µM: all other assays above

COc1ccc(F)c(C(=O)c2c[nH]c3ncc(-c4cccnc4)cc23)c1F [Compound P-1388, (2,6-Difluoro-3-methoxy-phenyl)-(5-pyridin-3-yl-1H-pyrrolo[2,3-b]pyridin-3-yl)-methanone]
not listed: Jnk1 | Ret | Jnk3 | Kdr | Flt1 | Stk6
≤ 10 µM: all other assays above

Cc1cccc(C)c1Cc1c[nH]c2ncc(-c3cccnc3)cc12 [Compound P-1481, 3-(2,6-Dimethyl-benzyl)-5-pyridin-3-yl-1H-pyrrolo[2,3-b]pyridine]
≤ 10 µM: B-Raf | B-Raf V600E | Btk | Fak | FGFR1 | Fms | Kit | Src
